Converted amounts (≈) assume the structure as drawn.
Tests used:
Experiment in all cases: MIC, broth microdilution (NCCLS)
[1] = test system: Enterococcus faecalis Enfa_29212; type: cell-based; details: Table 5, Strain ID C (Table 4): E. faecalis Enfa_29212
How it was run: (§1)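 Broth microdilution per NCCLS in cation-adjusted Mueller-Hinton broth, with 2-5% lysed horse blood added for S. pneumoniae. Inoculum 3×10^5–7×10^5 CFU/ml, 2-fold drug dilutions, 18-24 h at 35° C; S. pneumoniae under 5-10% CO2, others ambient air. MIC = lowest concentration preventing visible growth.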

[2] = test system: Haemophilus influenzae Hain_49247; type: cell-based; details: Table 5, Strain ID L (Table 4): H. influenzae Hain_49247; unit assumed
[3] = test system: Staphylococcus epidermidis Step_14990; type: cell-based; details: Table 5, Strain ID A (Table 4): S. epidermidis Step_14990; in µg/mL (unit assumed)
How it was run: as §1

[4] = test system: Staphylococcus epidermidis Step_f50654; type: cell-based; details: Table 5, Strain ID B (Table 4): S. epidermidis Step_f50654 Pen S; in µg/mL (unit assumed)
How it was run: as §1

[5] = test system: Streptococcus pneumoniae Stpn_Erm S 4297; type: cell-based; details: Table 5, Strain ID I (Table 4): S. pneumoniae Stpn_Erm S 4297
How it was run: as §1

[6] = test system: Streptococcus pneumoniae Stpn_Mef S 3427; type: cell-based; details: Table 5, Strain ID K (Table 4): S. pneumoniae Stpn_Mef S 3427
How it was run: as §1

[7] = test system: Streptococcus pyogenes Stpy_8668; type: cell-based; details: Table 5, Strain ID D (Table 4): S. pyogenes Stpy_8668
How it was run: as §1

[8] = test system: Streptococcus pneumoniae Stpn_49619; type: cell-based; details: Table 5, Strain ID E (Table 4): S. pneumoniae Stpn_49619
How it was run: as §1

[9] = test system: Streptococcus pneumoniae Stpn_297-749; type: cell-based; details: Table 5, Strain ID F (Table 4): S. pneumoniae Stpn_297-749 Pen R
How it was run: as §1

[10] = test system: Streptococcus pneumoniae Stpn_280-962; type: cell-based; details: Table 5, Strain ID G (Table 4): S. pneumoniae Stpn_280-962 Pen S
How it was run: as §1

[11] = test system: S. pneumoniae Stpn_Erm 6849; type: cell-based, Streptococcus pneumoniae; details: Table 5, Strain ID H (Table 4): S. pneumoniae Stpn_Erm 6849; unit assumed
How it was run: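 Lowest drug concentration giving no visible growth after 18-24 hours at 35° C. under 5-10% CO2 was taken as MIC. Twofold serial dilutions in CAMHB plus 2-5% lysed horse blood, final inoculum 3×10^5–7×10^5 CFU/ml, per NCCLS microdilution.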

[12] = test system: Streptococcus pneumoniae Stpn_Mef 5654; type: cell-based; details: Table 5, Strain ID J (Table 4): S. pneumoniae Stpn_Mef 5654; in µg/mL (unit assumed)
How it was run: as §1

E. coli Esco_25922 = type: cell-based; details: Table 5, Strain ID M (Table 4): E. coli Esco_25922; unit assumed
Experimental: Strains. The bacterial isolates listed in Table 4 were cultivated from −70° C. frozen stocks by two consecutive overnight passages (P1, P2) at 35° C. on 5% blood agar (Remel, Lenexa, Kans.). Chocolate agar (Remel) is used for Haemophilus influenzae. H. influenzae and Streptococcus pneumoniae are incubated in 5-10% CO2
Drug Stock Preparation. To determine the amount of solvent to be used to give the desired final concentration, the formula “weight obtained in mg/final concentration in mg/ml” will be used. It will give the amount of solvent in ml needed to be added to give the desired concentration. For example, if 2.5 mg/ml is the desired concentration and the weight of compound is 13.7 mg, then the amount of solvent to be added is […]. Methanol is used as the solvent to dissolve the test compounds. Further dilution of stock is done in sterile, deionized water. Drug stocks are kept frozen at −70° C., protected from light.
Susceptibility Testing. MICs are determined by the broth microdilution method in accordance with the NCCLS guidelines. In brief, organism suspensions are adjusted to a 0.5 McFarland standard to yield a final inoculum between 3×10^5 and 7×10^5 CFU/ml. Drug dilutions and inocula are made in sterile, cation adjusted Mueller-Hinton Broth (CAMHB) (Remel) for all but S. pneumoniae [CAMHB with 2-5% lysed horse blood (Remel)] and H. influenzae [Haemophilus Test Medium (Remel)]. An inoculum volume of 100 μl is added to wells containing 100 μl of broth with 2-fold serial dilutions of drug. All inoculated microdilution trays are incubated in ambient air at 35° C. for 18-24 hours, except for S. pneumoniae, and H. influenzae (both at 5-10% CO2).
Following appropriate incubation, the MIC is determined and the MIC is defined as the lowest concentration of the drug that prevented visible growth.

Compound	MIC ([1]; in µg/mL (unit assumed))	MIC [2] [µg/mL]	MIC [3]	MIC [4]	MIC ([5]; unit assumed) [µg/mL]	MIC ([6]; in µg/mL (unit assumed))	MIC [7]	MIC [8]	MIC [9]	MIC [10]	MIC [11] [µg/mL]	MIC [12]	MIC (E. coli Esco_25922) [µg/mL]	MIC ([7]; unit assumed) [µg/mL]	MIC ([8]; unit assumed) [µg/mL]	MIC [1]	MIC [5]	MIC [6]
CC[C@H]1OC(=O)[C@H](C)C(=O)[C@H](C)[C@@H](OC2O[C@H](C)C[C@H](N(C)C)[C@H]2O)[C@@](C)(OC)C[C@@H](C)C(=O)[C@H](C)[C@@H]2[C@@H]1OC(=O)N2CCCCn1cnc2ncccc21 (stereo partly drawn) [Compound 4713]	0.1	3.13 (≈ 4.05 µM)	0.4	0.4	0.1 (≈ 0.13 µM)	0.4	=0.5	=0.5	=0.5	=0.5	0.78 (≈ 1.01 µM)	3.13	50 (≈ 64.8 µM)					
CC[C@H]1OC(=O)[C@H](C)C(=O)[C@H](C)[C@@H](OC2O[C@H](C)C[C@H](N(C)C)[C@H]2O)[C@@](C)(OC)C[C@@H](C)C(=O)[C@H](C)[C@H]2NC(=O)O[C@@H]21 (stereo partly drawn) [Compound 4266]	1.56	25 (≈ 41.8 µM)	3.13	3.13	> 50	0.1			=0.05	=0.05	> 50	0.2	> 50	0.1 (≈ 0.167 µM)	0.2 (≈ 0.334 µM)			
CC[C@H]1OC(=O)[C@H](C)C(=O)[C@H](C)[C@@H](OC2O[C@H](C)C[C@H](N(C)C)[C@H]2O)[C@@](C)(OC)C[C@@H](C)C(=O)[C@H](C)[C@H]2N(CCCCn3cnc4ccccc43)C(=O)O[C@]12CC (stereo partly drawn) [Compound 7282]	0.1	3.13 (≈ 3.92 µM)	0.4	0.2	0.2 (≈ 0.25 µM)	0.1	=0.05	=0.05	=0.05	=0.05	0.78 (≈ 0.976 µM)	0.4	12.5 (≈ 15.6 µM)					
CC[C@H]1OC(=O)[C@H](C)C(=O)[C@H](C)[C@@H](OC2O[C@H](C)C[C@H](N(C)C)[C@H]2O)[C@@](C)(OC)C[C@@H](C)C(=O)[C@H](C)[C@@H]2[C@@H]1OC(=O)N2CCCCn1cnc(-c2ccccc2)c1 (stereo partly drawn) [Compound 4710]		3.13 (≈ 3.93 µM)	0.1	0.2			=0.5	=0.5	=0.5	=0.5	0.2 (≈ 0.251 µM)	0.2	50 (≈ 62.7 µM)			=0.05	=0.05	=0.5
CC[C@H]1OC(=O)[C@H](C)C(=O)[C@H](C)[C@@H](OC2O[C@H](C)C[C@H](N(C)C)[C@H]2O)[C@@](C)(OC)C[C@@H](C)C(=O)[C@H](C)[C@H]2N(CCCCn3cnc(-c4cccnc4)c3)C(=O)O[C@]12CC (stereo partly drawn) [Compound 7280]	0.1	6.25 (≈ 7.57 µM)	0.2	0.2		0.1	=0.05	=0.05	=0.05	=0.05	0.4 (≈ 0.484 µM)	0.4	25 (≈ 30.3 µM)				=0.05	
CC[C@H]1OC(=O)[C@H](C)C(=O)[C@H](C)[C@@H](OC2O[C@H](C)C[C@H](N(C)C)[C@H]2O)[C@@](C)(OC)C[C@@H](C)C(=O)[C@H](C)[C@@H]2[C@@H]1OC(=O)N2CCCCc1ccnc2ccccc12 (stereo partly drawn) [Compound 6220]		1.56 (≈ 1.99 µM)	0.1	0.1	0.1 (≈ 0.128 µM)		=0.05	=0.05	=0.05	=0.05	3.13 (≈ 4 µM)	0.4	6.25 (≈ 7.99 µM)			=0.05		=0.5
